molecular target: SARS2 coronavirus 3CL protease (Severe acute respiratory syndrome coronavirus 2, UniProt P0DTD1); experiment: biochemical; details: 5 nM enzyme, 30 min pre-incubation with compound, 15 μM peptide substrate, 4 h at room temperature; read-out: FRET Potency (nM); IC50 values in the SARS2 3CLPro FRET assay

`C[C@@H]1C[C@@H](C[C@H](NC(=O)c2cc(Cl)ccc2NC(=O)C2(CC(F)(F)F)CC2)C(=O)C(=O)NC2CC2)C(=O)N1` [Example 62] and `C[C@@H]1C[C@@H](C[C@H](NC(=O)c2cc(Cl)ccc2NC(=O)C23CC(C(F)(F)F)(C2)C3)C(=O)C(=O)NC2CC2)C(=O)N1` [Example 69, N-[4-chloro-2-[[(1S)-3-(cyclopropylamino)-1-[[(3S,5R)-5-methyl-2-oxo-pyrrolidin-3-yl]methyl]-2,3-dioxo-propyl]carbamoyl]phenyl]-3-(trifluoromethyl)bicyclo[1.1.1] pentane-1-carboxamide] are within 1.5-fold of each other in IC50: 7.6 nM for the first, 6.9 nM for the second.

`O=C(NC1CC1)C(=O)[C@H](C[C@@H]1CCNC1=O)NC(=O)c1cc(Cl)ccc1NC(=O)C1CC(F)(F)C1` [Example 63, 5-chloro-N-[(1S)-3-(cyclopropylamino)-2,3-dioxo-1-[[(3S)-2-oxopyrrolidin-3-yl]methyl]propyl]-2-[(3,3-difluorocyclobutanecarbonyl)amino]benzamide] and `O=C(NC1CC1)C(=O)[C@H](C[C@@H]1CCNC1=O)NC(=O)c1cc(Cl)ccc1NC(=O)c1cncc(C(F)(F)F)c1` [Example 71, N-[4-chloro-2-[[(1S)-3-(cyclopropylamino)-2,3-dioxo-1-[[(3S)-2-oxopyrrolidin-3-yl]methyl]propyl]carbamoyl]phenyl]-5-(trifluoromethyl)pyridine-3-carboxamide] are within 1.5-fold of each other in IC50: 7.3 nM for the first, 6.6 nM for the second.

First: C[C@@H]1C[C@@H](C[C@H](NC(=O)c2cc(C(F)(F)F)ccc2NC(=O)c2cccc(C(F)(F)F)c2)C(=O)C(=O)NC2CC2)C(=O)N1 [Example 64, N-[(1S)-3-(cyclopropylamino)-1-[[(3S,5R)-5-methyl-2-oxo-pyrrolidin-3-yl]methyl]-2,3-dioxo-propyl]-5-(trifluoromethyl)-2-[[3-(trifluoromethyl)benzoyl]amino]benzamide]
Second: C[C@@H]1C[C@@H](C[C@H](NC(=O)c2cc(F)ccc2NC(=O)c2cccc(C(F)(F)F)c2)C(=O)C(=O)NC2CC2)C(=O)N1 [Example 78, N-[(1S)-3-(cyclopropylamino)-1-[[(3S,5R)-5-methyl-2-oxo-pyrrolidin-3-yl]methyl]-2,3-dioxo-propyl]-5-fluoro-2-[[3-(trifluoromethyl)benzoyl]amino]benzamide]
The IC50 of the first is 1.6-fold higher: 7.3 nM for the first, 4.6 nM for the second. The second is the more potent here.

`C[C@@H]1C[C@@H](C[C@H](NC(=O)c2cc(Cl)ccc2NC(=O)c2cccc(C(F)(F)F)c2)C(=O)C(=O)NC2CC2)C(=O)N1` [Example 66, 5-chloro-N-[(1S)-3-(cyclopropylamino)-1-[[(3S,5R)-5-methyl-2-oxo-pyrrolidin-3-yl]methyl]-2,3-dioxo-propyl]-2-[[3-(trifluoromethyl)benzoyl]amino]benzamide] and `C[C@@H]1C[C@@H](C[C@H](NC(=O)c2cc(Cl)ccc2NC(=O)c2cccc(F)c2)C(=O)C(=O)NC2CC2)C(=O)N1` [Example 73, 5-chloro-N-[(1S)-3-(cyclopropylamino)-1-[[(3S,5R)-5-methyl-2-oxo-pyrrolidin-3-yl]methyl]-2,3-dioxo-propyl]-2-[(3-fluorobenzoyl)amino] benzamide] are within 1.5-fold of each other in IC50: 7 nM for the first, 6.2 nM for the second.

`C[C@@H]1C[C@@H](C[C@H](NC(=O)c2cc(F)cnc2NC(=O)c2cccc(C(F)(F)F)c2)C(=O)C(=O)NC2CC2)C(=O)N1` [Example 67, N-[(1S)-3-(cyclopropylamino)-1-[[(3S,5R)-5-methyl-2-oxo-pyrrolidin-3-yl]methyl]-2,3-dioxo-propyl]-5-fluoro-2-[[3-(trifluoromethyl)benzoyl]amino]pyridine-3-carboxamide] and `C[C@@H]1C[C@@H](C[C@H](NC(=O)c2cc(F)ccc2NC(=O)c2ccnc(C(F)(F)F)c2)C(=O)C(=O)NC2CC2)C(=O)N1` [Example 77, N-[2-[[(1S)-3-(cyclopropylamino)-1-[[(3S,5R)-5-methyl-2-oxo-pyrrolidin-3-yl]methyl]-2,3-dioxo-propyl]carbamoyl]-4-fluoro-phenyl]-2-(trifluoromethyl)pyridine-4-carboxamide] are within 1.5-fold of each other in IC50: 7 nM for the first, 5.3 nM for the second.

`O=C(CCC(F)(F)F)Nc1ccc(Cl)cc1C(=O)N[C@@H](C[C@@H]1C[C@@H](C(F)(F)F)NC1=O)C(=O)C(=O)NC1CC1` [Example 68, 5-chloro-N-[(1S)-3-(cyclopropylamino)-2,3-dioxo-1-[[(3R,5S)-2-oxo-5-(trifluoromethyl)pyrrolidin-3-yl]methyl]propyl]-2-(4,4,4-trifluorobutanoylamino) benzamide] and `O=C(NC1CC1)C(=O)[C@H](C[C@@H]1CCNC1=O)NC(=O)c1cc(Cl)ccc1NC(=O)c1ccnc(C(F)(F)F)c1` [Example 75, N-[4-chloro-2-[[(1S)-3-(cyclopropylamino)-2,3-dioxo-1-[[(3S)-2-oxopyrrolidin-3-yl]methyl]propyl]carbamoyl]phenyl]-2-(trifluoromethyl)pyridine-4-carboxamide] are within 1.5-fold of each other in IC50: 7 nM for the first, 6 nM for the second.

`CNC(=O)C(=O)[C@H](C[C@@H]1C[C@@H](C)NC1=O)NC(=O)c1cc(C(F)F)ccc1NC(=O)c1cccc(C(F)(F)F)c1` [Example 70, 5-(difluoromethyl)-N-[(1S)-3-(methylamino)-1-[[(3S,5R)-5-methyl-2-oxo-pyrrolidin-3-yl]methyl]-2,3-dioxo-propyl]-2-[[3-(trifluoromethyl)benzoyl]amino]benzamide] and `CNC(=O)C(=O)[C@H](C[C@@H]1C[C@@H](C)NC1=O)NC(=O)c1cc(Cl)ccc1NC(=O)c1ccnc(C(F)(F)F)c1` [Example 74] are within 1.5-fold of each other in IC50: 6.9 nM for the first, 6.2 nM for the second.

`CNC(=O)C(=O)[C@H](C[C@@H]1C[C@@H](C)NC1=O)NC(=O)c1cc(Cl)ccc1NC(=O)c1cc(C(F)(F)F)ccn1` [Example 72, N-[4-chloro-2-[[(1S)-3-(methylamino)-1-[[(3S,5R)-5-methyl-2-oxo-pyrrolidin-3-yl]methyl]-2,3-dioxo-propyl]carbamoyl]phenyl]-4-(trifluoromethyl)pyridine-2-carboxamide] and `CNC(=O)C(=O)[C@H](C[C@@H]1C[C@@H](C)NC1=O)NC(=O)c1cc(Cl)ccc1NC(=O)c1ccc(C(F)(F)F)nc1` [Example 76, N-[4-chloro-2-[[(1S)-3-(methylamino)-1-[[(3S,5R)-5-methyl-2-oxo-pyrrolidin-3-yl]methyl]-2,3-dioxo-propyl]carbamoyl]phenyl]-6-(trifluoromethyl)pyridine-3-carboxamide] are within 1.5-fold of each other in IC50: 6.3 nM for the first, 5.3 nM for the second.

`O=C(NC1CC1)C(=O)[C@H](C[C@@H]1CCNC1=O)NC(=O)c1cc(Cl)c(F)cc1NC(=O)c1cncc(C(F)(F)F)c1` [Example 79] and `CNC(=O)C(=O)[C@H](C[C@@H]1CCNC1=O)NC(=O)c1cc(Cl)ccc1NC(=O)C1(C(F)(F)F)CC1` [Example 81, 5-chloro-N-[(1S)-3-(methylamino)-2,3-dioxo-1-[[(3S)-2-oxopyrrolidin-3-yl]methyl]propyl]-2-[[1-(trifluoromethyl)cyclopropane-carbonyl]amino]benzamide] are within 1.5-fold of each other in IC50: 11.3 nM for the first, 15.9 nM for the second.

With `C[C@@H]1C[C@@H](C[C@H](NC(=O)c2cc(Cl)cc(Cl)c2NC(=O)C23CC(F)(C2)C3)C(=O)C(=O)NC2CC2)C(=O)N1` [Example 80, N-[2,4-dichloro-6-[[(1S)-3-(cyclopropylamino)-1-[[(3S,5R)-5-methyl-2-oxo-pyrrolidin-3-yl]methyl]-2,3-dioxo-propyl]carbamoyl]phenyl]-3-fluoro-bicyclo[1.1.1]pentane-1-carboxamide] the IC50 was 21.6 nM.

Reference: US20240228535A1 (priority 2022, published 2024)
